Data set [1] concerns the target T1, Delta-type opioid receptor (Homo sapiens, UniProt P41143). As to the kind of experiment: Agonist activity at Myc-tagged delta-type opioid receptor (unknown origin) expressed in HEK293 cells assessed as inhibition of forskolin-stimulated cAMP accumulation after 30 mins by liquid scintillation counting analysis relative to DAMGO. Type of data set: functional, cell-based. For orientation: cAMP levels reflect the balance of adenylyl cyclase and phosphodiesterase activity.

The target of data set [2] is T2, Mu-type opioid receptor (Homo sapiens, UniProt P35372). As to the kind of experiment: Agonist activity at FLAG-tagged mu-type opioid receptor (unknown origin) expressed in HEK293 cells assessed as inhibition of forskolin-stimulated cAMP accumulation after 30 mins by liquid scintillation counting analysis relative to DAMGO. Type of data set: functional, cell-based.
T2 sequence (P35372 whole entry): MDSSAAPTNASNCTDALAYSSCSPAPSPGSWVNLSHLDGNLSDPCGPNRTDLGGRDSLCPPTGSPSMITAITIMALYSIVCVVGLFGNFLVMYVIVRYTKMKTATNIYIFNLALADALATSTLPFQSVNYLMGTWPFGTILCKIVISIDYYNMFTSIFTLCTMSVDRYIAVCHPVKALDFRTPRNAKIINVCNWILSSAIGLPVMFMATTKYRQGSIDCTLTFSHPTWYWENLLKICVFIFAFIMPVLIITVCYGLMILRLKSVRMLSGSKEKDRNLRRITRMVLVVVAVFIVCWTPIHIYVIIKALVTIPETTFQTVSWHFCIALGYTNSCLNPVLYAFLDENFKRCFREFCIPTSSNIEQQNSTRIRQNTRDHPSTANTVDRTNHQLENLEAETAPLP

For data set [3], the target named is Mu-type opioid receptor (Mus musculus) (UniProt P42866). As to the kind of experiment: Agonist activity at mu-type opioid receptor in Kunming mouse vas deferens assessed as inhibition of electrically evoked muscle contraction in presence of naltrindole.
Chain of Mu-type opioid receptor (Mus musculus) (P42866 whole entry): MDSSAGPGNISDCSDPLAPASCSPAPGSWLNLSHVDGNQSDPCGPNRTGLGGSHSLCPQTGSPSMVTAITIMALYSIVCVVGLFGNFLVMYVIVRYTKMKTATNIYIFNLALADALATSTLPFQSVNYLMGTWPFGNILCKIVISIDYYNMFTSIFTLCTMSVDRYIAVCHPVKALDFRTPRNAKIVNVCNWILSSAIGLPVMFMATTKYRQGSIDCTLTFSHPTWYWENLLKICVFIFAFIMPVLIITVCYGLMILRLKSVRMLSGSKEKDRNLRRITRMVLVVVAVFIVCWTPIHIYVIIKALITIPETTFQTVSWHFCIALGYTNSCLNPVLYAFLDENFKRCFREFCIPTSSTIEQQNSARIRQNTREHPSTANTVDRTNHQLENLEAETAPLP
Data set [4] has as its target Mu-type opioid receptor (Mus musculus, UniProt P42866). Nature of the data set: Agonist activity at mu-type opioid receptor in Kunming mouse vas deferens assessed as inhibition of electrically evoked muscle contraction.
For data set [5], the target named is Mu-type opioid receptor (Cavia porcellus, UniProt P97266). Nature of the data set: Agonist activity at mu-type opioid receptor in guinea pig ileum assessed as inhibition of electrically evoked muscle contraction. Type of data set: tissue-based.
Chain of Mu-type opioid receptor (Cavia porcellus, UniProt P97266) (P97266 whole entry): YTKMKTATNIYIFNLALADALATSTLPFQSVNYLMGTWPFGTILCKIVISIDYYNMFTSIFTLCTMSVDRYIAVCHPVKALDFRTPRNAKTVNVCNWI
Data set [6] can be described thus: Half life in mouse brain homogenate by RP-HPLC analysis. Format: ADME, tissue-based.
The subject of data set [7] is Mus musculus. As to the kind of experiment: Antinociceptive activity in Kunming mouse assessed as tail withdrawal latency at 2 mg/kg, iv by hot water tail-flick test in presence of naloxone methiodide. Type of data set: functional, organism-based. The arrangement: dose 2 mg/kg. (In general: In hot-plate and tail-flick tests a longer latency is read as antinociception.)

Data set [8] deals with T1, Delta-type opioid receptor. As to the kind of experiment: Displacement of [3H]DPDPE from Myc-tagged delta-type opioid receptor (unknown origin) expressed in HEK293 cells after 60 mins by liquid scintillation counting analysis. Format: cell-based.
The target in data set [9] is T2, Mu-type opioid receptor. Nature of the data set: Agonist activity at FLAG-tagged mu-type opioid receptor (unknown origin) expressed in HEK293 cells assessed as stimulation of ERK1/2 phosphorylation at 1 uM after 10 mins by Western blotting analysis. The settings on record: TDE = time-dependent effect. Type of data set: cell-based.
Data set [10] has as its target T2, Mu-type opioid receptor. Nature of the data set: Agonist activity at FLAG-tagged mu-type opioid receptor (unknown origin) expressed in HEK293 cells assessed as stimulation of ERK1/2 phosphorylation at 1 uM after 2 mins by Western blotting analysis. Format: cell-based. For orientation: A western blot detects proteins with antibodies after separation by electrophoresis.

The test system of data set [11] is Mus musculus. As to the kind of experiment: Antinociceptive activity in Kunming mouse assessed as tail withdrawal latency at 2 mg/kg, iv by hot water tail-flick test in presence of naloxone. Type of data set: functional, organism-based. Further details: dose 2 mg/kg.
The target of data set [12] is T2, Mu-type opioid receptor. Nature of the data set: Displacement of [3H]DAMGO from FLAG-tagged mu-type opioid receptor (unknown origin) expressed in HEK293 cells after 60 mins by liquid scintillation counting analysis. Format: cell-based.
Data set [13] has as its system Mus musculus. As to the kind of experiment: Antinociceptive activity in icv dosed Kunming mouse assessed as tail withdrawal latency by hot water tail-flick test in presence of naloxone. Format: functional, organism-based.
The test system of data set [14] is Mus musculus. Nature of the data set: Antinociceptive activity in icv dosed Kunming mouse assessed as tail withdrawal latency by hot water tail-flick test. Format: functional.
For another data set, the species on record is Homo sapiens. As to the kind of experiment: Selectivity ratio of Ki for Myc-tagged delta-type opioid receptor (unknown origin) to Ki for FLAG-tagged mu-type opioid receptor (unknown origin).
Data set [15] deals with Mus musculus. As to the kind of experiment: Antinociceptive activity in Kunming mouse assessed as tail withdrawal latency at 0.67 to 20 nmol/kg, icv by hot water tail-flick test. Type of data set: functional, organism-based. The settings on record: TDE = time-dependent effect.
In data set [16] the target is T2, Mu-type opioid receptor. As to the kind of experiment: Agonist activity at FLAG-tagged mu-type opioid receptor (unknown origin) expressed in HEK293 cells assessed as inhibition of forskolin-stimulated cAMP accumulation after 30 mins by liquid scintillation counting analysis. Format: functional, cell-based.
A short description of data set [17]: Selectivity ratio of Ki for kappa-type opioid receptor (unknown origin) to Ki for FLAG-tagged mu-type opioid receptor (unknown origin). The settings on record: Homo sapiens.
Data set [18] addresses Kappa-type opioid receptor (Homo sapiens, UniProt P41145). As to the kind of experiment: Displacement of [3H]U69,593 from kappa-type opioid receptor (unknown origin) expressed in HEK293 cells after 60 mins by liquid scintillation counting analysis. Format: cell-based.
For data set [19], the target named is T1, Delta-type opioid receptor. As to the kind of experiment: Agonist activity at Myc-tagged delta-type opioid receptor (unknown origin) expressed in HEK293 cells assessed as inhibition of forskolin-stimulated cAMP accumulation after 30 mins by liquid scintillation counting analysis. Type of data set: functional, cell-based.
For data set [20], the system named is Mus musculus. As to the kind of experiment: Antinociceptive activity in Kunming mouse assessed as tail withdrawal latency at 2 mg/kg, iv after 15 to 20 mins by hot water tail-flick test relative to control. Format: functional, organism-based. Further details: dose 2 mg/kg.

Activity calls are given as the source filed them. No cut-off for these calls is given here.

T1 sequence (P41143 whole entry): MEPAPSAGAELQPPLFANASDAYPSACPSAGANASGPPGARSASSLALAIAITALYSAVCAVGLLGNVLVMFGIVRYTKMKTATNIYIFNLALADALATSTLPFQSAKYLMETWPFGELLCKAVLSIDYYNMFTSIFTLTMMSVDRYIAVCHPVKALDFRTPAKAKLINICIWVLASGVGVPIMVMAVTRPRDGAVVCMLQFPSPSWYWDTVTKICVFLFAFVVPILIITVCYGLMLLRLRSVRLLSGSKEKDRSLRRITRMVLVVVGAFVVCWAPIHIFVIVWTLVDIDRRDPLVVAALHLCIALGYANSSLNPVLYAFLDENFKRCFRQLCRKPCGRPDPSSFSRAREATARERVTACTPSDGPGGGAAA
Chain of Mu-type opioid receptor (Mus musculus, UniProt P42866) (P42866 whole entry): as the sequence (P42866 whole entry) above
Chain of Kappa-type opioid receptor (P41145 whole entry): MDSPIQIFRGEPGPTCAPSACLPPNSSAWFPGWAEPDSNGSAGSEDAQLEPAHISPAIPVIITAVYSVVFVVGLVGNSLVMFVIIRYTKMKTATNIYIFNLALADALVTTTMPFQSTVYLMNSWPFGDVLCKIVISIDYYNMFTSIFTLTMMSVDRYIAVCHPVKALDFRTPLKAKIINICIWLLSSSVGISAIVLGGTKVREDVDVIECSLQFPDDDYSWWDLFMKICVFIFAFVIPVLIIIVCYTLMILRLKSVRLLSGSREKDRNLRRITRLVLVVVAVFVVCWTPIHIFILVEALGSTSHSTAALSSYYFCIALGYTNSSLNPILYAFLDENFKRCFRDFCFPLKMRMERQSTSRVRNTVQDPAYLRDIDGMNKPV

On to `C=C(C(N)=O)[C@@H](NC(=O)[C@H](Cc1c[nH]c2ccccc12)NC(=O)[C@H]1CCN(C(=O)[C@@H](N)Cc2c(C)cc(O)cc2C)C1)c1ccccc1`, for which the Emax in [1] came out at 77.6%; on Mu-type opioid receptor [2], 97.1%. In [3], the inhibition result is “Active”. Further, the IC50 on Mu-type opioid receptor [4] came to 1.53 nM; at Mu-type opioid receptor [5] it was 0.539 nM. In addition, in data set [6], the half-life is > 10 h. Also, the outcome in the data set with Mus musculus [7], at Mu-type opioid receptor [10] and with Mus musculus [20] was Active. Further, the Ki in [8] stood at 18.9 nM; at Mu-type opioid receptor [12] it was 0.0137 nM; in [18], 240 nM. Moreover, the Activity entry was “tde” at Mu-type opioid receptor [9], “Dose-dependent effect” with Mus musculus [14], “tde” in the data set on Mus musculus [15] and “Dose-dependent effect” in [19]. The outcome with Mus musculus [11] and in the data set on Mus musculus [13] was inactive. For the same compound, the ED50 in the data set with Mus musculus [14] (central) stood at 0.000779 µmol/kg. Moreover, the figures for the Ratio Ki (in the data set filed under Homo sapiens; in [17]) were 1380 and 17500, respectively. For the same compound, the EC50 at Mu-type opioid receptor [16] came out at 0.000107 nM; in [19], 40.4 nM. For the same compound, on Mu-type opioid receptor [16], the inhibition entry is “Dose-dependent effect”.

For orientation: Emax means the size of the effect at its maximum, as opposed to the concentration needed. The IC50 is the midpoint of a concentration-inhibition curve. For orientation: half-life means how long it takes for the measured level to halve. Broadly, the Ki is the equilibrium dissociation constant of an inhibitor or competing ligand from its target. High values mean weaker binding, low ones tighter binding. By ED50 is commonly meant the midpoint of the dose-response relation. By EC50 is commonly meant the concentration at which the effect is half-maximal.

(Values after ChEMBL document CHEMBL2331515, “Design, synthesis, and pharmacological characterization of novel endomorphin-1 analogues as extremely potent μ-opioid agonists” (J Med Chem, 2013).)
